The text below walks through data of patent US20220117968A1, “THIENO[2,3-D)PYRIMIDINES AND BENZOFURO(3,2-D)PYRIMIDINES AS ANTIMICROBIAL AGENTS” (Saint Louis University, priority 2017, published 2022).

In brackets after ≈: the same amount, converted by molar mass. Where a name gives a salt, the structure may show the parent alone. Read-outs that look alike come from different tables or passages of the source.

The assay relates to WT Mtb Erdman strain. Kind of assay: Microplate Alamar Blue Assay (MABA). The class given is cell-based. To be noted: Mycobacterium tuberculosis; for MIC50: read-out: MABA MIC50; for MIC90: read-out: MABA MIC90.
[1] abbreviates: concentration that inhibits mycobacterial survival by 50%, Middlebrook 7H9 media, 7 days at 37° C., resazurin 24 hours.
[2] abbreviates: concentration that inhibits mycobacterial survival by 90%, Middlebrook 7H9 media, 7 days at 37° C., resazurin 24 hours.

`CCCCNc1nc(CC)nc2sc(C)cc12` [Example 0728, N-butyl-2-ethyl-6-methylthieno[2,3-d]pyrimidin-4-amine]: the MIC50 under setting [1] stood at 0.182 µM (≈ 0.0454 µg/mL). The MIC90 under setting [2] amounted to 0.524 µM (≈ 0.131 µg/mL).

Regarding `Cc1nc(NCc2ccccc2)c2c(C)c(C)sc2n1` [Example 0795, N-Benzyl-2,5,6-trimethylthieno[2,3-d]pyrimidin-4-amine], the MIC50 under setting [1] came to 25.4 µM (≈ 7.2 µg/mL). The MIC90 under setting [2] is 28.4 µM (≈ 8.05 µg/mL).

Consider `CCCCNc1nc(C)nc2sc(C)c(C)c12` [Example 0796, N-butyl-2,5,6-trimethylthieno[2,3-d]pyrimidin-4-amine trifluoroacetate], for which the MIC50 was > 50 µM and the MIC90 is > 50 µM.

In the case of `Cc1nc(Nc2ccccc2)c2c(C)c(C)sc2n1` [Example 0797, 2,5,6-Trimethyl-N-phenylthieno[2,3-d]pyrimidin-4-amine], the MIC50 under setting [1] is > 50 µM. The MIC90 under setting [2] is > 50 µM.

With `Cc1nc(NCCc2ccccc2)c2c(C)c(C)sc2n1` [Example 0798, 2,5,6-Trimethyl-N-(2-phenylethyl)thieno[2,3-d]pyrimidin-4-amine], under setting [1], the MIC50 was found to be 27.4 µM (≈ 8.15 µg/mL). For the same molecule, the MIC90 under setting [2] is 32.9 µM (≈ 9.79 µg/mL).

With `CCc1nc(NC(C(=O)O)C(C)C)c2cc(C)sc2n1` (centres unmarked) [Example 0851, 2-({2-ethyl-6-methylthieno[2,3-d]pyrimidin-4-yl}amino)-3-methylbutanoic acid], the MIC50 under setting [1] was > 50 µM. Under setting [2], the MIC90 was > 50 µM.

Turning to `CCc1nc(NCCCN(C)C)c2cc(C)sc2n1` [Example 0935, [3-({2-ethyl-6-methylthieno[2,3-d]pyrimidin-4-yl}amino)propyl]dimethylamine], the MIC50 under setting [1] is > 50 µM. Besides, the MIC90 under setting [2] was > 50 µM.

Turning to `CCc1nc(NCCCC(F)(F)F)c2cc(C)sc2n1` [Example 1020, 2-Ethyl-6-methyl-N-(4,4,4-trifluorobutyl)thieno[2,3-d]pyrimidin-4-amine], the MIC50 under setting [1] turned out to be 0.116 µM (≈ 0.0352 µg/mL). For the same molecule, the MIC90 under setting [2] worked out at 0.163 µM (≈ 0.0494 µg/mL).

For the molecule `CCc1nc(NCCCc2ccccc2)c2cc(C)sc2n1` [Example 1023, 2-Ethyl-6-methyl-N-(3-phenylpropyl)thieno[2,3-d]pyrimidin-4-amine], the MIC50 under setting [1] is 0.0266 µM (≈ 0.00828 µg/mL). The MIC90 under setting [2] amounted to 0.108 µM (≈ 0.0336 µg/mL).

`Cc1cc2c(NC3CC3)nc(-c3ccccc3)nc2s1` [Example 1062, N-Cyclopropyl-6-methyl-2-phenyl-thieno[2,3-d]pyrimidin-4-amine]: the MIC50 under setting [1] worked out at 2.88 µM (≈ 0.81 µg/mL). Also, the MIC90 under setting [2] turned out to be 6.01 µM (≈ 1.69 µg/mL).

For `Cc1cc2c(NC3CC3)nc(Cc3ccc(F)cc3)nc2s1` [Example 1063, N-Cyclopropyl-2-[(4-fluorophenyl)methyl]-6-methyl-thieno[2,3-d]pyrimidin-4-amine], the MIC50 under setting [1] is 21 µM (≈ 6.58 µg/mL). Besides, the MIC90 under setting [2] was 41.7 µM (≈ 13.1 µg/mL).

Regarding `CCc1nc(NC2CC2)c2oc3ccccc3c2n1` [Example 1142, N-cyclopropyl-2-ethyl-benzofuro[3,2-d]pyrimidin-4-amine], the MIC50 under setting [1] is 8.37 µM (≈ 2.12 µg/mL). Besides, under setting [2], the MIC90 amounted to 24.8 µM (≈ 6.28 µg/mL).

Consider `CCc1nc(NC2CC2)c2cc(Br)sc2n1` [Example 1146, 6-Bromo-N-cyclopropyl-2-ethyl-thieno[2,3-d]pyrimidin-4-amine], for which the MIC50 under setting [1] was found to be 5.98 µM (≈ 1.78 µg/mL). Further, the MIC90 under setting [2] came out at 13.8 µM (≈ 4.12 µg/mL).

For the molecule `CCc1nc(NC2CC2)c2cc(-c3ccccc3)sc2n1` [Example 1150, N-Cyclopropyl-2-ethyl-6-phenyl-thieno[2,3-d]pyrimidin-4-amine], the MIC50 under setting [1] turned out to be 21.1 µM (≈ 6.23 µg/mL). The MIC90 under setting [2] came to 23.1 µM (≈ 6.82 µg/mL).

As to `Cc1nc(NC2CC2)c2oc3ccccc3c2n1` [Example 1151, N-Cyclopropyl-2-methyl-benzofuro[3,2-d]pyrimidin-4-amine], under setting [1], the MIC50 was found to be 11.1 µM (≈ 2.66 µg/mL). Further, under setting [2], the MIC90 came out at 33.9 µM (≈ 8.11 µg/mL).

Turning to `C=C(C)c1cc2c(NC3CC3)nc(CC)nc2s1` [Example 1154, N-Cyclopropyl-2-ethyl-6-(prop-1-en-2-yl)thieno[2,3-d]pyrimidin-4-amine], the MIC50 under setting [1] was found to be 45.9 µM (≈ 11.9 µg/mL). The MIC90 under setting [2] is > 50 µM.

On to `CCc1nc(NC2CC2)c2cc(C3CC3)sc2n1` [Example 1161, N,6-Dicyclopropyl-2-ethyl-thieno[2,3-d]pyrimidin-4-amine], for which, under setting [1], the MIC50 is 31.3 µM (≈ 8.12 µg/mL). The MIC90 under setting [2] came out at 36.3 µM (≈ 9.42 µg/mL).

On to `CCCCNc1nc(CC)nc2sccc12` [Example 1176, N-butyl-2-ethyl-thieno[2,3-d]pyrimidin-4-amine], for which the MIC50 under setting [1] worked out at 3.8 µM (≈ 0.894 µg/mL). Besides, the MIC90 under setting [2] was found to be 14.4 µM (≈ 3.39 µg/mL).

In the case of `CCc1nc(NC2CC2)c2cc(C(F)(F)F)sc2n1` [Example 1177, N-Cyclopropyl-2-ethyl-6-(trifluoromethyl)thieno[2,3-d]pyrimidin-4-amine], the MIC50 under setting [1] was determined as 30.8 µM (≈ 8.85 µg/mL). Under setting [2], the MIC90 was > 50 µM.

In the case of `CCc1nc(NC2CC2)c2cc(Cl)sc2n1` [Example 1181, 6-Chloro-N-cyclopropyl-2-ethyl-thieno[2,3-d]pyrimidin-4-amine], the MIC50 under setting [1] came out at 3.06 µM (≈ 0.776 µg/mL). For the same molecule, under setting [2], the MIC90 stood at 7.64 µM (≈ 1.94 µg/mL).

Consider `Cc1nc(NCCCc2ccccc2)c2oc3ccccc3c2n1` [Example 1299, 2-Methyl-N-(3-phenylpropyl)benzofuro[3,2-d]pyrimidin-4-amine], for which the MIC50 under setting [1] was found to be 0.128 µM (≈ 0.0406 µg/mL). Besides, the MIC90 under setting [2] amounted to 0.188 µM (≈ 0.0597 µg/mL).

On to `CCc1nc(NCCCc2ccccc2)c2oc3ccccc3c2n1` [Example 1300, 2-Ethyl-N-(3-phenylpropyl)benzofuro[3,2-d]pyrimidin-4-amine], for which, under setting [1], the MIC50 is 0.164 µM (≈ 0.0544 µg/mL). Under setting [2], the MIC90 stood at 0.389 µM (≈ 0.129 µg/mL).

Take `CCCCNc1nc(CC)nc2c1oc1ccccc12` [Example 1301, N-Butyl-2-ethylbenzofuro[3,2-d]pyrimidin-4-amine]: the MIC50 under setting [1] was determined as 3.8 µM (≈ 1.02 µg/mL). In addition, the MIC90 under setting [2] stood at 8.97 µM (≈ 2.42 µg/mL).

Turning to `CCc1nc(NCc2ccc(Cl)cc2)c2cc(C)sc2n1` [Example 1302, N-(4-Chlorobenzyl)-2-ethyl-6-methylthieno[2,3-d]pyrimidin-4-amine], the MIC50 under setting [1] turned out to be 2.63 µM (≈ 0.836 µg/mL). The MIC90 under setting [2] came out at 5.54 µM (≈ 1.76 µg/mL).

With `CCc1nc(NCc2ccccc2)c2cc(C)sc2n1` [Example 1303, N-Benzyl-2-ethyl-6-methylthieno[2,3-d]pyrimidin-4-amine], the MIC50 under setting [1] worked out at 10.6 µM (≈ 3 µg/mL). Also, the MIC90 under setting [2] amounted to 20.8 µM (≈ 5.89 µg/mL).

`CCc1nc(Nc2ccccc2)c2cc(C)sc2n1` [Example 1304, 2-Ethyl-6-methyl-N-phenylthieno[2,3-d]pyrimidin-4-amine]: the MIC50 under setting [1] amounted to 25.2 µM (≈ 6.79 µg/mL). The MIC90 under setting [2] is 41.6 µM (≈ 11.2 µg/mL).

With `CCc1nc(NCCCc2ccccc2)c2ccsc2n1` [Example 1305, 2-Ethyl-N-(3-phenylpropyl)thieno[2,3-d]pyrimidin-4-amine], under setting [1], the MIC50 was 0.113 µM (≈ 0.0336 µg/mL). Further, the MIC90 under setting [2] worked out at 0.145 µM (≈ 0.0431 µg/mL).

Take `CCc1nc(NCCc2ccccc2)c2cc(C)sc2n1` [Example 1306, 2-Ethyl-6-methyl-N-phenethylthieno[2,3-d]pyrimidin-4-amine]: the MIC50 under setting [1] stood at 0.125 µM (≈ 0.0372 µg/mL). In addition, the MIC90 under setting [2] was 0.183 µM (≈ 0.0544 µg/mL).

As for `CCc1nc(NCCc2ccc(Cl)cc2Cl)c2cc(C)sc2n1` [Example 1307, N-[2-(2,4-Dichlorophenyl)ethyl]-2-ethyl-6-methylthieno[2,3-d]pyrimidin-4-amine], the MIC50 under setting [1] was 0.526 µM (≈ 0.193 µg/mL). Under setting [2], the MIC90 was determined as 1.18 µM (≈ 0.432 µg/mL).

As to `CCc1nc(NCc2ccccn2)c2cc(C)sc2n1` [Example 1308, 2-Ethyl-6-methyl-N-(2-pyridylmethyl)thieno[2,3-d]pyrimidin-4-amine], the MIC50 under setting [1] was determined as 21.6 µM (≈ 6.14 µg/mL). Under setting [2], the MIC90 stood at 31.6 µM (≈ 8.99 µg/mL).

For `Cc1cc2c(NCCCc3ccccc3)nc(C(F)(F)F)nc2s1` [Example 1536, 6-Methyl-N-(3-phenylpropyl)-2-(trifluoromethyl)thieno[2,3-d]pyrimidin-4-amine], the MIC50 under setting [1] turned out to be 0.386 µM (≈ 0.136 µg/mL). Besides, the MIC90 under setting [2] amounted to 0.479 µM (≈ 0.168 µg/mL).

As for `FC(F)(F)c1nc(NCCCc2ccccc2)c2ccsc2n1` [Example 1537, N-(Phenylpropyl)-2-(trifluoromethyl)thieno[2,3-d]pyrimidin-4-amine], the MIC50 under setting [1] turned out to be 0.439 µM (≈ 0.148 µg/mL). The MIC90 under setting [2] amounted to 1.14 µM (≈ 0.385 µg/mL).

In the case of `Cc1cc2c(NCCCc3ccccc3)nc(C(F)(F)C(F)(F)F)nc2s1` [Example 1538, 6-Methyl-2-(1,1,2,2,2-pentafluoroethyl)-N-(3-phenylpropyl)thieno[2,3-d]pyrimidin-4-amine], the MIC50 under setting [1] was found to be 0.597 µM (≈ 0.24 µg/mL). Also, the MIC90 under setting [2] is 1.1 µM (≈ 0.442 µg/mL).

`FC(F)(F)C(F)(F)c1nc(NCCCc2ccccc2)c2ccsc2n1` [Example 1539, 2-(1,1,2,2,2-Pentafluoroethyl)-N-(3-phenylpropyl)thieno[2,3-d]pyrimidin-4-amine]: the MIC50 under setting [1] turned out to be 4.9 µM (≈ 1.9 µg/mL). Besides, the MIC90 under setting [2] was 7.36 µM (≈ 2.85 µg/mL).

On to `Cc1cc2c(NC3CC3)nc(C(F)(F)F)nc2s1` [Example 1540, N-Cyclopropyl-6-methyl-2-(trifluoromethyl)thieno[2,3-d]pyrimidin-4-amine], for which, under setting [1], the MIC50 was 1.81 µM (≈ 0.495 µg/mL). Besides, the MIC90 under setting [2] was found to be 4.79 µM (≈ 1.31 µg/mL).

Regarding `Cc1cc2c(NC3CC3)nc(C(F)(F)C(F)(F)F)nc2s1` [Example 1542, N-Cyclopropyl-6-methyl-2-(perfluoroethyl)thieno[2,3-d]pyrimidin-4-amine], the MIC50 under setting [1] is 5.28 µM (≈ 1.71 µg/mL). In addition, under setting [2], the MIC90 stood at 10.1 µM (≈ 3.27 µg/mL).

Turning to `FC(F)(F)C(F)(F)c1nc(NC2CC2)c2ccsc2n1` [Example 1543, N-Cyclopropyl-2-(perfluoroethyl)thieno[2,3-d]pyrimidin-4-amine], under setting [1], the MIC50 came to 26.9 µM (≈ 8.32 µg/mL). Under setting [2], the MIC90 worked out at 29.6 µM (≈ 9.15 µg/mL).

Regarding `CCCCNc1nc(C(F)(F)F)nc2sc(C)cc12` [Example 1544, N-Butyl-6-methyl-2-(trifluoromethyl)thieno[2,3-d]pyrimidin-4-amine], the MIC50 under setting [1] turned out to be 1.14 µM (≈ 0.33 µg/mL). Besides, the MIC90 under setting [2] was 3.69 µM (≈ 1.07 µg/mL).

Take `CCCCNc1nc(C(F)(F)C(F)(F)F)nc2sc(C)cc12` [Example 1546, N-Butyl-6-methyl-2-(perfluoroethyl)thieno[2,3-d]pyrimidin-4-amine]: the MIC50 under setting [1] came out at 11.2 µM (≈ 3.8 µg/mL). Moreover, the MIC90 under setting [2] came out at 12.4 µM (≈ 4.21 µg/mL).

As for `CCCCNc1nc(C(F)(F)C(F)(F)F)nc2sccc12` [Example 1547, N-Butyl-2-(perfluoroethyl)thieno[2,3-d]pyrimidin-4-amine], the MIC50 under setting [1] is 21.9 µM (≈ 7.12 µg/mL). For the same molecule, the MIC90 under setting [2] came out at 23.8 µM (≈ 7.74 µg/mL).
